Results on 13 compounds are retold here after patent US5242942A, “Anticonvulsant fructopyranose cyclic sulfites and sulfates” (McNeilab, Inc., priority 1992, dated 1993).

One experiment concerns tonic extensor seizure. The experiment is described as follows: maximal electroshock test (MES). The experiment is classed as in vivo, mouse (albino male CRS-CD1). Conditions: 10 mg/kg, PO, mouse, 4 hr; read-out: % Block (MES Test, mouse). Here is the method: The compounds of formula (I) are particularly useful as anticonvulsant agents in mammals including humans. The anticonvulsant activity of the subject compounds was determined using a standard "maximal electroshock test" (MES). In this test, activity is indicated by a block of the […] extensor seizure caused by application of an electric shock to mice via corneal electrodes, as described by Swinyard et al. in J. Pharmacol. Expt. Ther. 1952, 106, 319, and recorded as % block. A more recent description of current anticonvulsant drug screening is given by Swinyard in Epilepsia 1978, 19, 409. The anticonvulsant activity of the compounds of this invention tested according to the Swinyard 1952 method is shown in the following Table I.
In the test, albino male CRS-CD1 mice weighing between 18-25 g were used in all experiments (obtained from Charles River). They were allowed food and water ad libitum and were used only once. The electroshock apparatus and the corneal electrodes were purchased from Wahlquist Instrument Company, Salt Lake City, Utah.
Maximal electroshock seizures were induced by the delivery of a 60 Hertz (Hz) current of 50 milliamps (mA) intensity to the mouse through corneal electrodes for 0.2 seconds as originally described by Swinyard et al. (1952). This stimulus intensity is approximately 4 to 6 times the current producing 100% tonic extensor convulsions. During the validation of the MES test, the duration of the various seizure components following maximal electroshock were measured as follows: hindleg tonic flexion was measured from the time of the application of the stimulus to the time of onset of hindleg tonic extension (i.e. when the hindlegs deviate by greater than an angle of 90° from the torso), hindleg tonic extensor was measured from the time of extensor thrust to the onset of generalized clonus, and terminal clonus was measured from the beginning to the end of bilateral rhythmic clonic jerking. Mortality was also recorded. The duration of each seizure component agreed well with the values previously reported by Tedeschi et al. in J. Pharmacol. Expt. Ther. 1955, 116, 107. The corneal electrodes were concave so that saline could be applied to the electrodes to reduce mortality. If this procedure is followed, mortality should always be less than 40% in control mice. Thus, at an electroshock stimulus of 60 Hz, 50 mA and 0.2 seconds duration, the order of convulsive components and the percentage of control animals displaying the behaviors should be as follows: tonic flexion (100%), tonic extension (100%) and clonus (100%) with less than 40% mortality.
For testing compounds, the abolition of the tonic extensor component was the endpoint. Animals were dosed orally (PO) with either vehicle or test drug and at a specified time were given a maximal electric shock through corneal electrodes blotted with saline (as described above). A minimum of 10 animals were used per group and the percentage of animals in the group without tonic hindlimb extension recorded. Determination of ED50 values (that dose of drug inhibiting 50% of the tonic extensor seizures) is shown below in Table I.
(In general: Protection in the maximal electroshock model is a classic sign of anticonvulsant action.)
Regarding `CC1(C)O[C@H]2[C@@H]3OS(=O)(=O)O[C@@H]3CO[C@@]2(COS(=O)(=O)NCC(F)(F)F)O1` [Example 12, 2,3-O-(1-Methylethylidene)-4,5-O-sulfonyl-β-D-fructopyranose (2,2,2-Trifluoroethyl)sulfamate], the responders at 10 mg/kg was 40%.

Take `CCN(CC)S(=O)(=O)OC[C@@]12OC[C@H]3OS(=O)(=O)O[C@H]3[C@@H]1OC(C)(C)O2` [Example 14, 2,3-O-(1-Methylethylidene)-4,5-O-sulfonyl-β-D-fructopyranose Diethylsulfamate]: the responders at 10 mg/kg was found to be 10%.

For `C=CCNS(=O)(=O)OC[C@@]12OC[C@H]3OS(=O)(=O)O[C@H]3[C@@H]1OC(C)(C)O2` [Example 7, 2,3-O-(1-Methylethylidene)-4,5-O-sulfonyl-β-D-fructopyranose 2-Propenylsulfamate], the responders at 10 mg/kg came to 70%.

Take `CC1(C)O[C@H]2[C@@H]3OS(=O)(=O)O[C@@H]3CO[C@@]2(COS(=O)(=O)NC2CCC2)O1` [Example 10, 2,3-O-(1-Methylethylidene)-4,5-O-sulfonyl-β-D-fructopyranose Cyclobutylsulfamate]: the responders at 10 mg/kg was 90%.

The same experiment, now with this note: 35 mg/kg, PO, mouse, 4 hr; read-out: % Block (MES Test, mouse).
For `CCCCNS(=O)(=O)OC[C@@]12OC[C@H]3OS(=O)(=O)O[C@H]3[C@@H]1OC(C)(C)O2` [Example 4, 2,3-O-(1-Methylethylidene)-4,5-O-sulfonyl-β-D-fructopyranose Butylsulfamate], the responders at 35 mg/kg worked out at 100%.

Turning to `CC1(C)O[C@H]2[C@@H]3O[S@](=O)O[C@@H]3CO[C@@]2(COS(N)(=O)=O)O1` [Example 17, (R)-2,3-O-(1-Methylethylidene)-4,5-O-sulfinyl-β-D-fructopyranose Sulfamate], the responders at 35 mg/kg was 90%.

Staying with this experiment, now noted: 75 mg/kg, PO, mouse, 4 hr; read-out: % Block (MES Test, mouse).
On to `CC1(C)O[C@H]2[C@@H]3O[S@@](=O)O[C@@H]3CO[C@@]2(COS(N)(=O)=O)O1` [Example 16, (S)-2,3-O-(1-Methylethylidene)-4,5 -O-sulfinyl-β-D-fructopyranose Sulfamate], for which the responders at 75 mg/kg turned out to be 40%.

In the case of `CCCCCCCCNS(=O)(=O)OC[C@@]12OC[C@H]3OS(=O)(=O)O[C@H]3[C@@H]1OC(C)(C)O2` [Example 6, 2,3-O-(1-Methylethylidene)-4,5-O-sulfonyl-β-D-fructopyranose Octylsulfamate], the responders at 75 mg/kg was found to be 100%.

For `CCC1(CC)O[C@H]2[C@@H]3OS(=O)(=O)O[C@@H]3CO[C@@]2(COS(N)(=O)=O)O1` [Example 18, 2,3-O-(1-Ethylpropylidene)-4,5-O-sulfonyl-β-D-fructopyranose Sulfamate], the responders at 75 mg/kg worked out at 100%.

For `CC1(C)O[C@@H]2[C@H]3OS(=O)(=O)O[C@H]3CO[C@]2(COS(N)(=O)=O)O1` [Example 2, 2,3-O-(1-Methylethylidene)-4,5-O-sulfonyl-β-L-fructopyranose Sulfamate], the responders at 75 mg/kg is 80%.

On to `CC1(C)O[C@H]2[C@@H]3OS(=O)(=O)O[C@@H]3CO[C@@]2(COS(=O)(=O)NCc2ccccc2)O1` [Example 8, 2,3-O-(1-Methylethylidene)-4,5-O-sulfonyl-β-D-fructopyranose Phenylmethylsulfamate], for which the responders at 75 mg/kg came to 100%.

The experiment is the same for the next values; noted with them: 300 mg/kg, PO, mouse, 4 hr; read-out: % Block (MES Test, mouse).
For `Cc1ccc(S(=O)(=O)N=S2O[C@@H]3[C@@H](CO[C@@]4(COS(N)(=O)=O)OC(C)(C)O[C@@H]34)O2)cc1` (stereo partly drawn) [Example 19, 2,3-O-(1-Methylethylidene)-4,5-O-[N-(4-methylbenzenesulfonyl)imidosulfinyl]-β-D-fructopyranose Sulfamate], the responders at 300 mg/kg is 80%.

Consider `Cc1ccc(S(=O)(=O)N=S2(=O)O[C@@H]3[C@@H](CO[C@@]4(COS(N)(=O)=O)OC(C)(C)O[C@@H]34)O2)cc1` (stereo partly drawn) [Example 20, 2,3-O-(1-Methylethylidene)-4,5-O-[N-(4-methylbenzenesulfonyl)imidosulfonyl]-β-D-fructopyranose Sulfamate], for which the responders at 300 mg/kg is 75%.
